The text below walks through data of patent US4470976A, “Poly-cation salt of 4-O-polyhexaose-thio-arylene sulfates” (American Cyanamid Company, priority 1983, dated 1984).

Structures can show the parent of a compound that is named as a salt. Where two headings read alike, the source gives them in different places.

The target of one test is activated human C1 (Homo sapiens, UniProt P09871). The experiment in a line: Test Code 026 (C1 inhibitor). The test is classed as biochemical. The conditions noted are these: serial dilution assay, twofold dilutions; higher well number indicates higher activity.
For test [1], the system named is late components of human complement (C3-C9). Put plainly: Test Code 035 (C3-C9 inhibitor), lysis of EAC 142. The conditions noted are these: serial dilution assay, twofold dilutions; higher well number indicates higher activity. The test is classed as biochemical.
The subject of test [2] is serum complement activity. Put plainly: Guinea Pig Intraperitoneal Test (GPIP). The test is classed as in vivo. The conditions noted are these: Cavia porcellus, ip, 200 mg/kg i.p. Here is the method: The concentration of compound inhibiting 50% is reported; and (iv) Guinea Pig Intraperitoneal Test (GPIP): Guinea pigs weighing about 300 g are dosed intraperitoneally (i.p.) with 200 mg/kg of the test compound dissolved in saline and adjusted to pH 7-8. Approximately 0.4 ml blood samples, taken by orbital sinus puncture 2 hours and 6 hours after injections, are collected directly into centifuge tubes; 5 ml blood samples, taken by decapitation 24 hours after injection, are collected directly into beakers. The samples are allowed to clot, centrifuged, and the resultant sera are assayed for complement activity using the capillary complement assay. Percent inhibition is calculated by comparison with simultaneous controls.

For a further test, the system named is human serum complement. The conditions noted are these: both in vitro and in vivo; cited from earlier work.
[3] abbreviates: serum complement 2 hours after injection, read-out: In vivo Activity Guinea Pig % Inhibition Intraperitoneal, 2 hours.
Setting [4] is: serum complement 6 hours after injection, read-out: In vivo Activity Guinea Pig % Inhibition Intraperitoneal, 6 hours.
Setting [5] is: serum complement 24 hours after injection, read-out: In vivo Activity Guinea Pig % Inhibition Intraperitoneal, 24 hours.

On to “4-(Sulfanilamido)phenyl 2,3,6-tri-O-sulfo-4-O-(2,3,4,6-tetra-O-sulfo-α-D-glucopyranosyl)-1-thio-β-D-glucopyranoside octasodium salt”, for which the “In vitro Activity C1 026 Wells” value on activated human C1 stood at 5 Wells.

For `O=S(=O)(O)OC[C@H]1O[C@@H]([S+]([O-])c2cc(OS(=O)(=O)O)ccc2OS(=O)(=O)O)[C@H](OS(=O)(=O)O)[C@@H](OS(=O)(=O)O)[C@@H]1O[C@H]1O[C@H](COS(=O)(=O)O)[C@@H](OS(=O)(=O)O)[C@H](OS(=O)(=O)O)[C@H]1OS(=O)(=O)O` (stereo partly drawn) [2,5-Bis(sulfooxy)phenyl 2,3,6-tri-O-sulfo-4-O-(2,3,4,6-tetra-O-sulfo-α-D-glucopyranosyl)-1-sulfinyl-β-D-glucopyranoside nonasodium salt], the “In vitro Activity C-Late 035 Wells” value in test [1] was found to be 2 Wells. Also, the “In vitro Activity C1 026 Wells” value on activated human C1 is recorded as 11 Wells.

In the case of `O=S(=O)([O-])OC[C@H]1O[C@@H](Sc2cc(OS(=O)(=O)[O-])ccc2OS(=O)(=O)[O-])[C@H](OS(=O)(=O)[O-])[C@@H](OS(=O)(=O)[O-])[C@@H]1O[C@H]1O[C@H](COS(=O)(=O)[O-])[C@@H](OS(=O)(=O)[O-])[C@H](OS(=O)(=O)[O-])[C@H]1OS(=O)(=O)[O-].[Na+].[Na+].[Na+].[Na+].[Na+].[Na+].[Na+].[Na+].[Na+]` [2,5-Bis(sulfooxy)phenyl 2,3,6-tri-O-sulfo-4-O-(2,3,4,6-tetra-O-sulfo-α-D-glucopyranosyl)-1-thio-β-D-glucopyranoside nonasodium salt], in test [1], the “In vitro Activity C-Late 035 Wells” value is recorded as 2 Wells. Also, the “In vitro Activity C1 026 Wells” value on activated human C1 amounted to 9 Wells. Besides, the inhibition (usually how much of the control response was suppressed) at 200 mg/kg in test [2] (setting [3]) was determined as 83%; in test [2] (setting [4]), 77%.

Turning to `O=C([O-])c1ccccc1S[C@@H]1O[C@H](COS(=O)(=O)[O-])[C@@H](O[C@H]2O[C@H](COS(=O)(=O)[O-])[C@@H](OS(=O)(=O)[O-])[C@H](OS(=O)(=O)[O-])[C@H]2OS(=O)(=O)[O-])[C@H](OS(=O)(=O)[O-])[C@H]1OS(=O)(=O)[O-].[Na+].[Na+].[Na+].[Na+].[Na+].[Na+].[Na+].[Na+]` [2-Carboxyphenyl 2,3,6-tri-O-sulfo-4-O-(2,3,4,6-tetra-O-sulfo-α-D-glucopyranosyl)-1-thio-β-D-glucopyranoside octasodium salt], on activated human C1, the “In vitro Activity C1 026 Wells” value came out at 8 Wells.

Take `O=S(=O)(O)OC[C@H]1O[C@@H](Sc2cccc(S)c2)[C@H](OS(=O)(=O)O)[C@@H](OS(=O)(=O)O)[C@@H]1O[C@H]1O[C@H](COS(=O)(=O)O)[C@@H](OS(=O)(=O)O)[C@H](OS(=O)(=O)O)[C@H]1OS(=O)(=O)O.[Na+].[Na+].[Na+].[Na+].[Na+].[Na+].[Na+].[Na+]` [3-Mercaptophenyl 2,3,6-tri-O-sulfo-4-O-(2,3,4,6-tetra-O-sulfo-α-D-glucopyranosyl)-1-thio-β-D-glucopyranoside octasodium salt]: the “In vitro Activity C-Late 035 Wells” value in test [1] was 3 Wells. At activated human C1, the “In vitro Activity C1 026 Wells” value is 11 Wells.

Turning to `O=S(=O)([O-])OC[C@H]1O[C@@H](Sc2cccc(C(F)(F)F)c2)[C@H](OS(=O)(=O)[O-])[C@@H](OS(=O)(=O)[O-])[C@@H]1O[C@H]1O[C@H](COS(=O)(=O)[O-])[C@@H](OS(=O)(=O)[O-])[C@H](OS(=O)(=O)[O-])[C@H]1OS(=O)(=O)[O-].[Na+].[Na+].[Na+].[Na+].[Na+].[Na+].[Na+]` [3-Trifluoromethylphenyl 2,3,6-tri-O-sulfo-4-O-(2,3,4,6-tetra-O-sulfo-α-D-glucopyranosyl)-1-thio-β-D-glucopyranoside heptasodium salt], the “In vitro Activity C1 026 Wells” value on activated human C1 is recorded as 5 Wells.

For the molecule `CCOC(=O)C(=O)Nc1ccc(S[C@@H]2O[C@H](COS(=O)(=O)O)[C@@H](O[C@H]3O[C@H](COS(=O)(=O)O)[C@@H](OS(=O)(=O)O)[C@H](OS(=O)(=O)O)[C@H]3OS(=O)(=O)O)[C@H](OS(=O)(=O)O)[C@H]2OS(=O)(=O)O)cc1` [4-(Ethoxyoxalylamino)phenyl 2,3,6-tri-O-sulfo-4-O-(2,3,4,6-tetra-O-sulfo-α-D-glucopyranosyl)-1-thio-β-D-glucopyranoside heptasodium salt], the “In vitro Activity C1 026 Wells” value at activated human C1 came out at 8 Wells. Also, the inhibition at 200 mg/kg worked out at 81% in test [2] (setting [3]), 71% in test [2] (setting [4]) and 32% in test [2] (setting [5]).

In the case of `Nc1ccc(S[C@@H]2O[C@H](COS(=O)(=O)[O-])[C@@H](O[C@H]3O[C@H](COS(=O)(=O)[O-])[C@@H](OS(=O)(=O)[O-])[C@H](OS(=O)(=O)[O-])[C@H]3OS(=O)(=O)[O-])[C@H](OS(=O)(=O)[O-])[C@H]2OS(=O)(=O)[O-])cc1.[Na+].[Na+].[Na+].[Na+].[Na+].[Na+].[Na+]` [4-Aminophenyl 2,3,6-tri-O-sulfo-4-O-(2,3,4,6-tetra-O-sulfo-α-D-glucopyranosyl)-1-thio-β-D-glucopyranoside heptasodium salt], on activated human C1, the “In vitro Activity C1 026 Wells” value was 9 Wells. Further, the results for the inhibition at 200 mg/kg in test [2] (setting [3]), in test [2] (setting [4]) and in test [2] (setting [5]) were 61%, 19% and 42%, respectively.

Turning to `O=S(=O)([O-])OC[C@H]1O[C@@H](Sc2ccc(F)cc2)[C@H](OS(=O)(=O)[O-])[C@@H](OS(=O)(=O)[O-])[C@@H]1O[C@H]1O[C@H](COS(=O)(=O)[O-])[C@@H](OS(=O)(=O)[O-])[C@H](OS(=O)(=O)[O-])[C@H]1OS(=O)(=O)[O-].[Na+].[Na+].[Na+].[Na+].[Na+].[Na+].[Na+]` [4-Fluorophenyl 2,3,6-tri-O-sulfo-4-O-(2,3,4,6-tetra-O-sulfo-α-D-glucopyranosyl)-1-thio-β-D-glucopyranoside heptasodium salt], the “In vitro Activity C1 026 Wells” value at activated human C1 was determined as 8 Wells.

For the molecule `COc1ccc(S[C@@H]2O[C@H](COS(=O)(=O)[O-])[C@@H](O[C@H]3O[C@H](COS(=O)(=O)[O-])[C@@H](OS(=O)(=O)[O-])[C@H](OS(=O)(=O)[O-])[C@H]3OS(=O)(=O)[O-])[C@H](OS(=O)(=O)[O-])[C@H]2OS(=O)(=O)[O-])cc1.[Na+].[Na+].[Na+].[Na+].[Na+].[Na+].[Na+]` [4-Methoxyphenyl 2,3,6-tri-O-sulfo-4-O-(2,3,4,6-tetra-O-sulfo-α-D-glucopyranosyl)-1-thio-β-D-glucopyranoside heptasodium salt], the “In vitro Activity C1 026 Wells” value on activated human C1 is given as 4 Wells.

As to `O=S(=O)([O-])OC[C@H]1O[C@@H](Sc2ccc(OS(=O)(=O)[O-])cc2)[C@H](OS(=O)(=O)[O-])[C@@H](OS(=O)(=O)[O-])[C@@H]1O[C@H]1O[C@H](COS(=O)(=O)[O-])[C@@H](OS(=O)(=O)[O-])[C@H](OS(=O)(=O)[O-])[C@H]1OS(=O)(=O)[O-].[Na+].[Na+].[Na+].[Na+].[Na+].[Na+].[Na+].[Na+]` [4-Sulfooxyphenyl 2,3,6-tri-O-sulfo-4-O-(2,3,4,6-tetra-O-sulfo-α-D-glucopyranosyl)-1-thio-β-D-glucopyranoside octasodium salt], on activated human C1, the “In vitro Activity C1 026 Wells” value was found to be 8 Wells.

Take `CC(=O)Nc1ccc(S[C@@H]2O[C@H](COS(=O)(=O)O)[C@@H](O[C@@H]3O[C@H](COS(=O)(=O)O)[C@@H](OS(=O)(=O)O)[C@H](OS(=O)(=O)O)[C@H]3OS(=O)(=O)O)[C@H](OS(=O)(=O)O)[C@H]2OS(=O)(=O)O)cc1` [4-acetamidophenyl 2,3,6-tri-O-sulfo-4-O-(2,3,4,6-tetra-O-sulfo-β-D-glucopyranosyl)-1-thio-β-D-glucopyranoside heptasodium salt]: the results for the inhibition at 200 mg/kg in test [2] (setting [3]), in test [2] (setting [4]) and in test [2] (setting [5]) were 86%, 66% and 15%, respectively.

With pentosan-polysulfoester, in the test on human serum complement, the “anticomplementary activity, judged by the reduction in total hemolytic complement activity” value is “has an anticomplementary activity on human serum, both in vitro and in vivo”.
